From ChEMBL document CHEMBL4649982, “Selective targeting of Bromodomains of the Bromodomain-PHD Fingers family impairs osteoclast differentiation” (ACS Chem Biol, 2017)
Where “and” joins values, the source holds several entries; their conditions need not be identical. Equal entries are not always repeated.

Tests used:
[1] = target: Nuclear body protein SP140 (Homo sapiens) (UniProt Q13342); conditions: Compound concentration 10.0 uM, Protein concentration 2.0 uM
[2] = target: Bromodomain-containing protein 7 (Homo sapiens) (UniProt Q9NPI1); conditions: Compound concentration 10.0 uM, Protein concentration 2.0 uM
[3] = target: Bromodomain and WD repeat-containing protein 3 (Homo sapiens) (UniProt Q6RI45); conditions: Compound concentration 10.0 uM, Protein concentration 2.0 uM
[4] = target: Bromodomain-containing protein 1 (Homo sapiens) (UniProt O95696); conditions: Compound concentration 10.0 uM, Protein concentration 2.0 uM
[5] = target: Transcription intermediary factor 1-beta (Homo sapiens) (UniProt Q13263); conditions: Compound concentration 10.0 uM, Protein concentration 2.0 uM
[6] = target: Bromodomain testis-specific protein (Homo sapiens) (UniProt Q58F21); conditions: Compound concentration 10.0 uM, Protein concentration 2.0 uM
[7] = target: CREB-binding protein (Homo sapiens) (UniProt Q92793); conditions: Compound concentration 10.0 uM, Protein concentration 2.0 uM
[8] = target: Bromodomain-containing protein 3 (Homo sapiens) (UniProt Q15059); conditions: Compound concentration 10.0 uM, Protein concentration 2.0 uM
[9] = target: Histone acetyltransferase KAT2B (Homo sapiens) (UniProt Q92831); conditions: Compound concentration 10.0 uM, Protein concentration 2.0 uM
[10] = target: Transcription initiation factor TFIID subunit 1-like (Homo sapiens) (UniProt Q8IZX4); conditions: Compound concentration 10.0 uM, Protein concentration 2.0 uM
[11] = target: Tyrosine-protein kinase BAZ1B (Homo sapiens) (UniProt Q9UIG0); conditions: Compound concentration 10.0 uM, Protein concentration 2.0 uM
[12] = target: Histone acetyltransferase KAT2A (Homo sapiens) (UniProt Q92830); conditions: Compound concentration 10.0 uM, Protein concentration 2.0 uM
[13] = target: T1, E3 ubiquitin-protein ligase TRIM33 (Homo sapiens) (UniProt Q9UPN9); conditions: Compound concentration […], Protein concentration 200.0 uM
T1 sequence (whole entry): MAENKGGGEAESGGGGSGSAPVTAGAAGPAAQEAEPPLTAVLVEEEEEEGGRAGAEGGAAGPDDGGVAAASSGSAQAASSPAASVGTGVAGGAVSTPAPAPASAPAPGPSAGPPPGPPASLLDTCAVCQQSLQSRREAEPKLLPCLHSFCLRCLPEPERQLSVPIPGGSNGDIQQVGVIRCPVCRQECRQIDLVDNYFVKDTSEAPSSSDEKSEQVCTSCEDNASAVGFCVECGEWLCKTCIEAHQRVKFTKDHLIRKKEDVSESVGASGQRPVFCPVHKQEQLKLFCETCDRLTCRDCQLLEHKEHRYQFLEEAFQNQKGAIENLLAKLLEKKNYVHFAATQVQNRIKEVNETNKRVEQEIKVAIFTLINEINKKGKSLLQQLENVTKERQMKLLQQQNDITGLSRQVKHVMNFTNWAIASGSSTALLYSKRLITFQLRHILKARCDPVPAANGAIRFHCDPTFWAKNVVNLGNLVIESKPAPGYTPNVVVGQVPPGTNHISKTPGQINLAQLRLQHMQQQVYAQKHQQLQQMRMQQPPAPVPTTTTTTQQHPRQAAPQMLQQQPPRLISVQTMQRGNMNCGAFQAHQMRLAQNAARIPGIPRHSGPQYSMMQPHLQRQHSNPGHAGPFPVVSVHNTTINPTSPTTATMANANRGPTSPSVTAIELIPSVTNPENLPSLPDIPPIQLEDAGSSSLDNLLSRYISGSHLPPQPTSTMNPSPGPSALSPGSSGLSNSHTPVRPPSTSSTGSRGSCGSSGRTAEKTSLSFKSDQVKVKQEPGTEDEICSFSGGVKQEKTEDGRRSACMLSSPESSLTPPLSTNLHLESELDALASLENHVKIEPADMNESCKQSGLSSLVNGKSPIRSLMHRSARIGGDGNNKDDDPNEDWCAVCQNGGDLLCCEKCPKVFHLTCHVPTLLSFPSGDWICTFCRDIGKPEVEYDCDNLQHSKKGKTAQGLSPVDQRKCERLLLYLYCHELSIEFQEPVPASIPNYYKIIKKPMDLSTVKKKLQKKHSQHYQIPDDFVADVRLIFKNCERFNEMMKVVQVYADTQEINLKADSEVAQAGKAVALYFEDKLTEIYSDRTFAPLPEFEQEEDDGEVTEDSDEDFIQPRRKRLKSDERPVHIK

[14] = target: PH-interacting protein (Homo sapiens) (UniProt Q8WWQ0); conditions: Compound concentration 10.0 uM, Protein concentration 2.0 uM
[15] = target: Protein polybromo-1 (Homo sapiens) (UniProt Q86U86); conditions: Compound concentration 10.0 uM, Protein concentration 2.0 uM
[16] = target: Protein polybromo-1 (Homo sapiens) (UniProt Q86U86); conditions: Compound concentration 10.0 uM, Protein concentration 2.0 uM; remark: listed apart in the source
[17] = target: Bromodomain and WD repeat-containing protein 1 (Homo sapiens) (UniProt Q9NSI6); conditions: Compound concentration 10.0 uM, Protein concentration 2.0 uM
[18] = target: Bromodomain-containing protein 3 (Homo sapiens) (UniProt Q15059); conditions: Compound concentration 10.0 uM, Protein concentration 2.0 uM; remark: listed apart in the source
[19] = target: Histone-lysine N-methyltransferase 2A (Homo sapiens) (UniProt Q03164); conditions: Compound concentration 10.0 uM, Protein concentration 2.0 uM
[20] = target: Bromodomain-containing protein 4 (Homo sapiens) (UniProt O60885); conditions: Compound concentration 10.0 uM, Protein concentration 2.0 uM
[21] = target: Nuclear body protein SP140-like protein (Homo sapiens) (UniProt Q9H930); conditions: Compound concentration 10.0 uM, Protein concentration 2.0 uM
[22] = target: Protein polybromo-1 (Homo sapiens) (UniProt Q86U86); conditions: Compound concentration 10.0 uM, Protein concentration 2.0 uM; remark: listed apart in the source
[23] = target: Bromodomain-containing protein 2 (Homo sapiens) (UniProt P25440); conditions: Compound concentration 10.0 uM, Protein concentration 2.0 uM
[24] = target: Bromodomain adjacent to zinc finger domain protein 2A (Homo sapiens) (UniProt Q9UIF9); conditions: Compound concentration 10.0 uM, Protein concentration 2.0 uM
[25] = target: Histone-lysine N-methyltransferase ASH1L (Homo sapiens) (UniProt Q9NR48); conditions: Compound concentration 10.0 uM, Protein concentration 2.0 uM
[26] = target: Bromodomain testis-specific protein (Homo sapiens) (UniProt Q58F21); conditions: Compound concentration 10.0 uM, Protein concentration 2.0 uM; remark: listed apart in the source
Peregrin (Homo sapiens) [27] = target: Peregrin (Homo sapiens) (UniProt P55201); conditions: Compound concentration 10.0 uM, Protein concentration 2.0 uM
[28] = target: SWI/SNF-related matrix-associated actin-dependent regulator of chromatin subfamily A member 4 (Homo sapiens) (UniProt P51532); conditions: Compound concentration 10.0 uM, Protein concentration 2.0 uM
[29] = target: Transcription intermediary factor 1-alpha (Homo sapiens) (UniProt O15164); conditions: Compound concentration 10.0 uM, Protein concentration 2.0 uM
[30] = target: Bromodomain-containing protein 9 (Homo sapiens) (UniProt Q9H8M2); conditions: Compound concentration 10.0 uM, Protein concentration 2.0 uM
Peregrin (Homo sapiens) [31] = target: Peregrin (Homo sapiens) (UniProt P55201); conditions: Compound concentration 10.0 uM, Protein concentration 2.0 uM; remark: listed apart in the source
[32] = target: Bromodomain adjacent to zinc finger domain protein 2B (Homo sapiens) (UniProt Q9UIF8); conditions: Compound concentration 10.0 uM, Protein concentration 2.0 uM
[33] = target: Transcription initiation factor TFIID subunit 1-like (Homo sapiens) (UniProt Q8IZX4); conditions: Compound concentration 10.0 uM, Protein concentration 2.0 uM; remark: listed apart in the source
[34] = target: Histone acetyltransferase p300 (Homo sapiens) (UniProt Q09472); conditions: Compound concentration 10.0 uM, Protein concentration 2.0 uM
[35] = target: Chromatin remodeling regulator CECR2 (Homo sapiens) (UniProt Q9BXF3); conditions: Compound concentration 10.0 uM, Protein concentration 2.0 uM
[36] = target: Bromodomain-containing protein 2 (Homo sapiens) (UniProt P25440); conditions: Compound concentration 10.0 uM, Protein concentration 2.0 uM; remark: listed apart in the source
[37] = target: Protein polybromo-1 (Homo sapiens) (UniProt Q86U86); conditions: Compound concentration 10.0 uM, Protein concentration 2.0 uM; remark: listed apart in the source
[38] = target: ATPase family AAA domain-containing protein 2 (Homo sapiens) (UniProt Q6PL18); conditions: Compound concentration 10.0 uM, Protein concentration 2.0 uM
[39] = target: Bromodomain-containing protein 1 (Homo sapiens, UniProt O95696)
[40] = target: Transcription initiation factor TFIID subunit 1 (Homo sapiens) (UniProt P21675); conditions: Compound concentration 10.0 uM, Protein concentration 2.0 uM
[41] = target: T1, E3 ubiquitin-protein ligase TRIM33 (Homo sapiens); assay: Thermal Shift Assay. Domain start/stop: D882-P1073; conditions: Compound concentration 10.0 uM
[42] = target: Transcription intermediary factor 1-alpha (Homo sapiens) (UniProt O15164); assay: Thermal Shift Assay. Domain start/stop: N790-P971; conditions: Compound concentration 10.0 uM, Protein concentration 2.0 uM
[43] = target: SWI/SNF-related matrix-associated actin-dependent regulator of chromatin subfamily A member 2 (Homo sapiens) (UniProt P51531); conditions: Compound concentration 10.0 uM, Protein concentration 2.0 uM
[44] = target: Nucleosome-remodeling factor subunit BPTF (Homo sapiens) (UniProt Q12830); conditions: Compound concentration 10.0 uM, Protein concentration 2.0 uM
[45] = target: Bromodomain adjacent to zinc finger domain protein 1A (Homo sapiens) (UniProt Q9NRL2); conditions: Compound concentration 10.0 uM, Protein concentration 2.0 uM
[46] = target: ATPase family AAA domain-containing protein 2B (Homo sapiens) (UniProt Q9ULI0); conditions: Compound concentration 10.0 uM, Protein concentration 2.0 uM
[47] = target: Bromodomain and PHD finger-containing protein 3 (Homo sapiens) (UniProt Q9ULD4); conditions: Compound concentration 10.0 uM, Protein concentration 2.0 uM
[48] = target: Transcription initiation factor TFIID subunit 1 (Homo sapiens) (UniProt P21675); conditions: Compound concentration 10.0 uM, Protein concentration 2.0 uM; remark: listed apart in the source
[49] = target: Protein polybromo-1 (Homo sapiens) (UniProt Q86U86); conditions: Compound concentration 10.0 uM, Protein concentration 2.0 uM; remark: listed apart in the source
[50] = target: Chromatin remodeling regulator CECR2 (Homo sapiens) (UniProt Q9BXF3); conditions: Compound concentration 10.0 uM, Protein concentration 2.0 uM; remark: listed apart in the source
[51] = target: Protein polybromo-1 (Homo sapiens) (UniProt Q86U86); conditions: Compound concentration 10.0 uM, Protein concentration 2.0 uM; remark: listed apart in the source

Transcription initiation factor TFIID subunit 1 (Homo sapiens), sequence (P21675 whole entry): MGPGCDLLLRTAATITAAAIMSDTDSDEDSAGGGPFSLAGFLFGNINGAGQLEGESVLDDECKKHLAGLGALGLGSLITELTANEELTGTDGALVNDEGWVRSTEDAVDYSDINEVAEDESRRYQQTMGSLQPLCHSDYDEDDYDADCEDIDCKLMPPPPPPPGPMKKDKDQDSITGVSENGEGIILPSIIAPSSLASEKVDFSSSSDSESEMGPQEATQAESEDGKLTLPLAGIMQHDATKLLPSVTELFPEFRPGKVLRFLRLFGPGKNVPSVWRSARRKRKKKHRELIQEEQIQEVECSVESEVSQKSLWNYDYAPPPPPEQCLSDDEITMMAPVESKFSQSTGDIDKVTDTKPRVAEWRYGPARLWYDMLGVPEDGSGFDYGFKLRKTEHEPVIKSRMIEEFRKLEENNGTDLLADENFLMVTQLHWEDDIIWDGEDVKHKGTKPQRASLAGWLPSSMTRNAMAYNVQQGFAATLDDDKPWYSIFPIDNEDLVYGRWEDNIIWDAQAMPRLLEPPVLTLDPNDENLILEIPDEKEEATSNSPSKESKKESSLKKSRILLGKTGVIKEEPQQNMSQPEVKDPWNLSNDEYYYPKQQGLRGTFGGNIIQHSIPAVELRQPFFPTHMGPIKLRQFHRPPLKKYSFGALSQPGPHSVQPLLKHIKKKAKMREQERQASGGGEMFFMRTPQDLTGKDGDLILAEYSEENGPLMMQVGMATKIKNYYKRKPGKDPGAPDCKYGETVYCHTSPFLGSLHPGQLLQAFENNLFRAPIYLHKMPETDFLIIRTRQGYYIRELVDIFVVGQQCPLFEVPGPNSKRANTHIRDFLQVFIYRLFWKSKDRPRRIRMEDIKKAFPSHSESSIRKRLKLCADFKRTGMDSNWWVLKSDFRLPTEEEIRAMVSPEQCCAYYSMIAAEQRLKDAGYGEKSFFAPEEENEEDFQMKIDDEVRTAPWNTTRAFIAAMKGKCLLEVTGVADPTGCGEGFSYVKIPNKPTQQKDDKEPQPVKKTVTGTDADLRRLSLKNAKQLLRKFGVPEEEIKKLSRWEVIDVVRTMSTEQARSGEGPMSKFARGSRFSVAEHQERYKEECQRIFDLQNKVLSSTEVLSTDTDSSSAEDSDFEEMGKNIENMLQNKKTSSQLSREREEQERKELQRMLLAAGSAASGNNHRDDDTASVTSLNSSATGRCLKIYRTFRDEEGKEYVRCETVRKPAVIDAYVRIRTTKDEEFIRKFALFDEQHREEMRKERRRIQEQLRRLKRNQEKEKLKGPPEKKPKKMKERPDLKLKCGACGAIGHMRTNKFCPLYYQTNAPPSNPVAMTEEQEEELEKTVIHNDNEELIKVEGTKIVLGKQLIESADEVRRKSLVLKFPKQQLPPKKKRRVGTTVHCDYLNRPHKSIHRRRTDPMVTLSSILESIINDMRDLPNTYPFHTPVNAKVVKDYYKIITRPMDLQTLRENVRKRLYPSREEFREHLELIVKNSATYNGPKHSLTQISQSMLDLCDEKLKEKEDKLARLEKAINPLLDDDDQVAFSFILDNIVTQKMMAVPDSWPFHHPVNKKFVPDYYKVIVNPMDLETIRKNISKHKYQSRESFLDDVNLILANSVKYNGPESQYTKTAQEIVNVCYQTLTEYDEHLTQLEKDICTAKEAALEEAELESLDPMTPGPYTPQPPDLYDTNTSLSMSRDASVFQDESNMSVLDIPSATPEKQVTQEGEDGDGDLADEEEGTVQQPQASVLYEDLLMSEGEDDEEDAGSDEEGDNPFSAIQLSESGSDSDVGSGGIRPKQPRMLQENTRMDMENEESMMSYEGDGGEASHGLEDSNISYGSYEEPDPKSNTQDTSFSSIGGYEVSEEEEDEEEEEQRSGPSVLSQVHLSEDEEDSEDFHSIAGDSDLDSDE
Transcription initiation factor TFIID subunit 1-like (Homo sapiens), sequence (Q8IZX4 whole entry): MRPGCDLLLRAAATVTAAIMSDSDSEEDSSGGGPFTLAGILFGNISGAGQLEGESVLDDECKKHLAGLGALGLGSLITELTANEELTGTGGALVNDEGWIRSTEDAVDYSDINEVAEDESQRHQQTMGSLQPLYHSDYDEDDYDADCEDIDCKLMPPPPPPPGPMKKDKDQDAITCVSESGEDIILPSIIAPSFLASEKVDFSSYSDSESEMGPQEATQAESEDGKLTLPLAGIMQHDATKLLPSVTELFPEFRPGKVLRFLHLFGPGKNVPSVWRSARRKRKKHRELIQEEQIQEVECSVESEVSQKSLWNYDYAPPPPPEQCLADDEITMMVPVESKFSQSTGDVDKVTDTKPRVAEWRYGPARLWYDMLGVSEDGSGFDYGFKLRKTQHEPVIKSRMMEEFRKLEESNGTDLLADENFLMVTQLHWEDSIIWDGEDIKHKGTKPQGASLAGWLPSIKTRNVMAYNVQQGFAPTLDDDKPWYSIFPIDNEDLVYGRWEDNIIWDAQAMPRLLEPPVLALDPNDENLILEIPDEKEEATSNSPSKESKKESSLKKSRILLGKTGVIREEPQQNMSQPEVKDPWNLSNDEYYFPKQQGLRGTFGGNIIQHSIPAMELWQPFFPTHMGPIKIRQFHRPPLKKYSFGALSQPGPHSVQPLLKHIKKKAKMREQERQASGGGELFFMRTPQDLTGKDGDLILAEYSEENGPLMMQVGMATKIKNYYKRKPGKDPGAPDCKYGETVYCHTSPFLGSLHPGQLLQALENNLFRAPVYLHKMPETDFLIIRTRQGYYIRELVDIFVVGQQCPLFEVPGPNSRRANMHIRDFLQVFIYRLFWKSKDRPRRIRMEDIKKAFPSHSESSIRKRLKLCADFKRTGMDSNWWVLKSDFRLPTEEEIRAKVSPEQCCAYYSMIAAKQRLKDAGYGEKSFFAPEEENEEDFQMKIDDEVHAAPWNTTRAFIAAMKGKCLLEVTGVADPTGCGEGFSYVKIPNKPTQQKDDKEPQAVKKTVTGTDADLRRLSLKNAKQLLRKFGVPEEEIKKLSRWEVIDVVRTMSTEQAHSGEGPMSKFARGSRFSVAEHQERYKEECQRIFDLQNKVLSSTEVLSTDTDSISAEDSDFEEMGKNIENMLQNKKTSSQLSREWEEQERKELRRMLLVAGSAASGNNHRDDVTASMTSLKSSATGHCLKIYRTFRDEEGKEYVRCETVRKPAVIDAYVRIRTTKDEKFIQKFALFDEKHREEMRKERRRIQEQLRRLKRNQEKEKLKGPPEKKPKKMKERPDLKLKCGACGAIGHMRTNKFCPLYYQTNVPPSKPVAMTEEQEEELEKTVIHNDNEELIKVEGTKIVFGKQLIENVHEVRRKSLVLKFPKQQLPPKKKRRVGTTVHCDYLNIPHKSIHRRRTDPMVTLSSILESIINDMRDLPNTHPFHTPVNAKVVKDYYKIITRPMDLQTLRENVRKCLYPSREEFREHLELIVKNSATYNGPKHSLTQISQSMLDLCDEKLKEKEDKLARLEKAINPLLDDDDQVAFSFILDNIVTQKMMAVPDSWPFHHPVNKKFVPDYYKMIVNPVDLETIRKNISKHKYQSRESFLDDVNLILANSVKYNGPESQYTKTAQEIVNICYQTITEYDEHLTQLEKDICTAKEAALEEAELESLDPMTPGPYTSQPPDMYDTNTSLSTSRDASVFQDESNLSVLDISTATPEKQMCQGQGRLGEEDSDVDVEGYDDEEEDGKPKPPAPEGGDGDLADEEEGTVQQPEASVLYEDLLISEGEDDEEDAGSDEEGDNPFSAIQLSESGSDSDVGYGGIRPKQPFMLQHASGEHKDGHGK
Transcription intermediary factor 1-alpha (Homo sapiens), sequence (O15164 whole entry): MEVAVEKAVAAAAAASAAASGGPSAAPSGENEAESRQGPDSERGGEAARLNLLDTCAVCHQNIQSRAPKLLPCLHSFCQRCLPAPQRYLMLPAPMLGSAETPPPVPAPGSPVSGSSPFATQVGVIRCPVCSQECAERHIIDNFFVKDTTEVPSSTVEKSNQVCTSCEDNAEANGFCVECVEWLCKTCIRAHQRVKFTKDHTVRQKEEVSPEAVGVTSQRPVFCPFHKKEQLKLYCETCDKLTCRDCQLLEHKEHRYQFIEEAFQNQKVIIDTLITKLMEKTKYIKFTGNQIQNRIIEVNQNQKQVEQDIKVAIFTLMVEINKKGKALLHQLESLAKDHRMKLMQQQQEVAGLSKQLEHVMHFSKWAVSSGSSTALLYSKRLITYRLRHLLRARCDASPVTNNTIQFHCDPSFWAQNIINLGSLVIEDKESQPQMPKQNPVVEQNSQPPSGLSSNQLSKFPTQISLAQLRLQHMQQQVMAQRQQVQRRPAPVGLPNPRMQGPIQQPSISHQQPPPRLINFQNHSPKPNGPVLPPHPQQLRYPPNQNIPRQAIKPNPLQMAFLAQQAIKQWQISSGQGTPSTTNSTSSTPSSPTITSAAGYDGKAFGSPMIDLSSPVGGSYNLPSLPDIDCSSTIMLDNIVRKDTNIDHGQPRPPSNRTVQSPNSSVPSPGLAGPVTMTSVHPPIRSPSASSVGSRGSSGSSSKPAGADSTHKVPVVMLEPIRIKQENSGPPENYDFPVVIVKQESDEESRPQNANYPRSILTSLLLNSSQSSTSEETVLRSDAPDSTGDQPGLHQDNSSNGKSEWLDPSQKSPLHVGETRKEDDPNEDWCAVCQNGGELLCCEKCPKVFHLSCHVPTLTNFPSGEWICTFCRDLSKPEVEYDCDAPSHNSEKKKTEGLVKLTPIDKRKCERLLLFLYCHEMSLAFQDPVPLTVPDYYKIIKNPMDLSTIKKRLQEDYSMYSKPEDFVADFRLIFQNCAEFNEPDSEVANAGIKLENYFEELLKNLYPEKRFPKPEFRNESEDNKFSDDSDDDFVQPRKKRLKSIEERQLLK

COc1cc2c(cc1NS(=O)(=O)c1ccc(Br)cc1C)n(C)c(=O)n2C
ΔTm [1]: 0.32 °C | ΔTm [2]: 1.42 °C | ΔTm [3]: 1.67 °C | ΔTm [4]: 3.15 °C and 3.42 °C | ΔTm [5]: 0.37 °C | ΔTm [6]: 1.5 °C | ΔTm [7]: 1.22 °C and 1.19 °C | ΔTm [8]: 2.03 °C | ΔTm [9]: 0.53 °C | ΔTm [10]: 0.36 °C | ΔTm [11]: 0.53 °C | ΔTm [12]: 0.57 °C | inhibition [13]: 9.06% | ΔTm [14]: 0.36 °C | ΔTm [15]: 1.74 °C | ΔTm [16]: 0.96 °C | ΔTm [17]: -0.9 °C and 1.4 °C | ΔTm [18]: 1.93 °C | ΔTm [19]: 0.64 °C | ΔTm [20]: 1.31 °C | ΔTm [21]: 0.82 °C | ΔTm [22]: 0.28 °C | ΔTm [23]: 1.41 °C | ΔTm [24]: 0.47 °C | ΔTm [25]: 0.82 °C | ΔTm [26]: 1.19 °C | ΔTm (Peregrin (Homo sapiens) [27]): 7.61 °C and 6.99 °C and 6.03 °C | ΔTm [28]: 0.35 °C | ΔTm [29]: 1.16 °C and 2.05 °C | ΔTm [30]: 1.48 °C | ΔTm (Peregrin (Homo sapiens) [31]): 0.46 °C and 0.95 °C | ΔTm [32]: 1.14 °C | ΔTm [33]: -1.08 °C and 1.68 °C | ΔTm [34]: 0.87 °C | ΔTm [35]: -0.25 °C | ΔTm [36]: 1.02 °C | ΔTm [37]: 1.45 °C | ΔTm [38]: 0.15 °C | IC50 [39]: 0.128 µM | ΔTm [40]: 0.35 °C | ΔTm ([41]; Protein concentration 2.0 uM): -0.61 °C | ΔTm ([41]; Protein concentration […]): -0.23 °C | ΔTm [42]: 0.91 °C | ΔTm [43]: 0.38 °C | ΔTm [44]: 0.79 °C and 1.4 °C | ΔTm [45]: 1.07 °C | ΔTm [46]: 0.21 °C | ΔTm [47]: 1.85 °C and 3.4 °C | ΔTm [48]: 0.36 °C and 0.33 °C | ΔTm [49]: 0.53 °C | ΔTm [50]: 0.5 °C | ΔTm [51]: 0.5 °C
